Results on 18 compounds are retold here after ChEMBL document CHEMBL4052747 (Bioorg Med Chem Lett, 2017).

Assay [1] addresses T1, Kappa-type opioid receptor (Homo sapiens, UniProt P41145). The assay can be described thus: Agonist activity at human kappa opioid receptor.
For another assay, the species on record is Homo sapiens. As to the kind of experiment: Selectivity for human kappa opioid receptor over human mu opioid receptor.
Assay [2] addresses T1, Kappa-type opioid receptor. The assay can be described thus: Agonist activity at human kappa opioid receptor expressed in CHO-K1 cells assessed as inhibition of forskolin-induced cAMP accumulation by TR-FRET assay. The assay is classed as functional, cell-based. A general note: cAMP levels reflect the balance of adenylyl cyclase and phosphodiesterase activity.
Assay [3] has as its target T2, Mu-type opioid receptor (Homo sapiens, UniProt P35372). As to the kind of experiment: Agonist activity at human mu opioid receptor expressed in CHO-dhfr(-) cells assessed as inhibition of forskolin-induced cAMP accumulation by TR-FRET assay. Type of assay: functional, cell-based.
In another assay the test system is Rattus norvegicus. As to the kind of experiment: Anti-allodynic activity in rat model of partial sciatic nerve ligation-induced allodynia assessed as effect on withdrawal threshold at 3 and 5 mg/kg, iv dosed 7 days after ligation and measured 30 mins post dose by up-down method with von Frey filaments assay. The assay is classed as functional, organism-based.
In a further assay the test system is Mus musculus. As to the kind of experiment: Anti-pruritic activity in mouse assessed as reduction in substance P-induced scratching behavior at 3 mg/kg, ip dosed 15 mins before substance P injection and measured for 30 mins post substance P challenge by MicroAct based method. The assay is classed as functional, organism-based.
Assay [4] has as its target T2, Mu-type opioid receptor. As to the kind of experiment: Agonist activity at mu opioid receptor (unknown origin).

Structures are written as SMILES. Counter-ions that a name gives are not always drawn. Calls of active or inactive are those of the source.

T2 sequence (P35372 whole entry): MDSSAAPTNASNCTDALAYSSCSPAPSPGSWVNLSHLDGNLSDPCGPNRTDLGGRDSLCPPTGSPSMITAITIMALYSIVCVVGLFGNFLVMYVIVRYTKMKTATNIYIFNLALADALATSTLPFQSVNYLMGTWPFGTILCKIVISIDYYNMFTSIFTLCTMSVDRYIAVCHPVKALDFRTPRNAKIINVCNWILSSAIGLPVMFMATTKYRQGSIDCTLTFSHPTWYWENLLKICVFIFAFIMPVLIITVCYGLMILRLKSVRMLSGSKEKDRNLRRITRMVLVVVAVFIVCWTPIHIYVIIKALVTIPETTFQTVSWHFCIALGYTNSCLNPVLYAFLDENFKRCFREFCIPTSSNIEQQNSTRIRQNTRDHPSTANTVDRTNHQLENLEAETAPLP
T1 sequence (P41145 whole entry): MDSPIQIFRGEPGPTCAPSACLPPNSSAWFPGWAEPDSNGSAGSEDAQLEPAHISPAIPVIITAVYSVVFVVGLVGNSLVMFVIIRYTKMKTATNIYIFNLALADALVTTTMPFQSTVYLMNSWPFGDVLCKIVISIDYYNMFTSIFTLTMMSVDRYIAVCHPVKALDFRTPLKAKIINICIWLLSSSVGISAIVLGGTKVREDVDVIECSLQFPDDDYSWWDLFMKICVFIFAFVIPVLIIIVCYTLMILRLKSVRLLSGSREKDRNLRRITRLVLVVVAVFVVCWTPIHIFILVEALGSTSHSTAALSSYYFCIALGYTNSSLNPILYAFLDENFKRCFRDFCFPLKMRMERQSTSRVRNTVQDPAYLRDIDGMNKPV

The term EC50 denotes the concentration needed to bring the measured effect to its halfway point. The term Emax denotes the greatest response seen or fitted, relative to the assay's reference. On to `CN(C(=O)/C=C/c1ccoc1)[C@@H]1CC[C@@]2(O)[C@H]3[C@@H](O)c4ccc(O)c5c4[C@@]2(CCN3CC2CC2)[C@H]1O5`, for which the EC50 in assay [1] was 0.025 nM; in assay [2], 0.025 nM; on Mu-type opioid receptor [3], 1100 nM. In addition, in the assay listed under Homo sapiens, the Selectivity ratio is 44000. For the same compound, the Emax came out at 99% in assay [2] and 88% at Mu-type opioid receptor [3]. Besides, the result in the assay with Rattus norvegicus and in the assay on Mus musculus was Active.
For the compound `CN(C(=O)/C=C/c1ccoc1)[C@@H]1CC[C@@]2(O)[C@H]3Cc4ccc(O)c5c4[C@@]2(CCN3CC2CC2)[C@H]1O5` [NALFURAFINE HYDROCHLORIDE], at Mu-type opioid receptor [4], the EC50 turned out to be 1.7 nM.
Consider `CN(C(=O)/C=C/c1ccccn1)[C@@H]1CC[C@@]2(O)[C@H]3[C@@H](O)c4ccc(O)c5c4[C@@]2(CCN3CC2CC2)[C@H]1O5`, for which the EC50 was 0.0283 nM in assay [2] and 2880 nM on Mu-type opioid receptor [3]. Also, the Emax in assay [2] worked out at 99%; at Mu-type opioid receptor [3] it was 89%.
As to `CN(C(=O)COc1ccccc1)[C@@H]1CC[C@@]2(O)[C@H]3[C@@H](O)c4ccc(O)c5c4[C@@]2(CCN3CC2CC2)[C@H]1O5`, in assay [2], the EC50 was 5.04 nM and the Emax was determined as 97%. On Mu-type opioid receptor [3], the half-maximal effective concentration (EC50) is more than 30000 nM and the Emax turned out to be 17%.
Consider `CN(C(=O)CCc1ccccc1)[C@@H]1CC[C@@]2(O)[C@H]3[C@@H](O)c4ccc(O)c5c4[C@@]2(CCN3CC2CC2)[C@H]1O5`, for which, in assay [2], the EC50 came out at 1.04 nM and the Emax amounted to 100%. On Mu-type opioid receptor [3], the concentration giving a half-maximal response (EC50) came out at 18300 nM and the Emax was 57%.
Taken in the same sequence, the figures for `Cc1ccc(/C=C/C(=O)N(C)[C@@H]2CC[C@@]3(O)[C@H]4[C@@H](O)c5ccc(O)c6c5[C@@]3(CCN4CC3CC3)[C@H]2O6)cc1` were 0.0494 nM, 101%, 308 nM and 72%.
As for `CN(C(=O)/C=C/c1ccccc1)[C@@H]1CC[C@@]2(O)[C@H]3[C@@H](O)c4ccc(O)c5c4[C@@]2(CCN3CC2CC2)[C@H]1O5`, in assay [2], the 50% effective concentration (EC50) was 0.0222 nM and the Emax was determined as 101%. For the same compound, on Mu-type opioid receptor [3], the EC50 was 209 nM and the Emax came out at 107%.
`CN(C(=O)/C=C/c1cccs1)[C@@H]1CC[C@@]2(O)[C@H]3[C@@H](O)c4ccc(O)c5c4[C@@]2(CCN3CC2CC2)[C@H]1O5`: in assay [2], the EC50 came to 0.00466 nM and the Emax was 101%. At Mu-type opioid receptor [3], the EC50 is 4870 nM and the Emax worked out at 58%.
In the same order, the values of `CN(C(=O)Cc1ccccc1)[C@@H]1CC[C@@]2(O)[C@H]3[C@@H](O)c4ccc(O)c5c4[C@@]2(CCN3CC2CC2)[C@H]1O5` are more than 100 nM, 18%, more than 30000 nM and 43%.
In the same order, the values of `CN(C(=O)CCCc1ccccc1)[C@@H]1CC[C@@]2(O)[C@H]3[C@@H](O)c4ccc(O)c5c4[C@@]2(CCN3CC2CC2)[C@H]1O5` are 7.51 nM, 96%, 12900 nM and 99%.
`CN(C(=O)/C=C/c1ccncc1)[C@@H]1CC[C@@]2(O)[C@H]3[C@@H](O)c4ccc(O)c5c4[C@@]2(CCN3CC2CC2)[C@H]1O5`: in assay [2], the EC50 turned out to be 0.0257 nM and the Emax was 99%. In addition, on Mu-type opioid receptor [3], the EC50 is 12100 nM and the Emax stood at 62%.
In the same order, the values of `CN(C(=O)/C=C/c1cccnc1)[C@@H]1CC[C@@]2(O)[C@H]3[C@@H](O)c4ccc(O)c5c4[C@@]2(CCN3CC2CC2)[C@H]1O5` are 0.291 nM, 101%, 3760 nM and 86%.
Taken in the same sequence, the figures for `CN(C(=O)/C=C/c1ccsc1)[C@@H]1CC[C@@]2(O)[C@H]3[C@@H](O)c4ccc(O)c5c4[C@@]2(CCN3CC2CC2)[C@H]1O5` were 0.028 nM, 101%, 110 nM and 96%.
In the same order, the values of `CN(C(=O)c1ccccc1)[C@@H]1CC[C@@]2(O)[C@H]3[C@@H](O)c4ccc(O)c5c4[C@@]2(CCN3CC2CC2)[C@H]1O5` are more than 100 nM, 23%, more than 30000 nM and 44%.
On to `CN(C(=O)C#Cc1ccccc1)[C@@H]1CC[C@@]2(O)[C@H]3[C@@H](O)c4ccc(O)c5c4[C@@]2(CCN3CC2CC2)[C@H]1O5`, for which the EC50 in assay [2] was 0.0799 nM; on Mu-type opioid receptor [3], 904 nM. The Emax in assay [2] came out at 102%; on Mu-type opioid receptor [3], 95%.
Take `CN(C(=O)/C=C/c1ccc(O)cc1)[C@@H]1CC[C@@]2(O)[C@H]3[C@@H](O)c4ccc(O)c5c4[C@@]2(CCN3CC2CC2)[C@H]1O5`: the values for the EC50 (in assay [2]; on Mu-type opioid receptor [3]) were 0.0953 nM and more than 30000 nM, respectively. Besides, the results for the Emax (in assay [2]; at Mu-type opioid receptor [3]) were 98% and 49%, respectively.
On to `CN(C(=O)/C=C/c1ccc(Cl)cc1)[C@@H]1CC[C@@]2(O)[C@H]3[C@@H](O)c4ccc(O)c5c4[C@@]2(CCN3CC2CC2)[C@H]1O5`, for which, in assay [2], the EC50 stood at 0.0288 nM and the Emax stood at 99%. Moreover, on Mu-type opioid receptor [3], the EC50 is 48.8 nM and the Emax was found to be 92%.
Take `CN(C(=O)/C=C/c1ccco1)[C@@H]1CC[C@@]2(O)[C@H]3[C@@H](O)c4ccc(O)c5c4[C@@]2(CCN3CC2CC2)[C@H]1O5`: in assay [2], the EC50 is 0.122 nM and the maximal response (Emax) turned out to be 102%. Further, on Mu-type opioid receptor [3], the EC50 turned out to be 14200 nM and the Emax was 55%.
